# Measured values: PubChem BioAssay (NCI)
#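 48-hour exposure; five concentrations; linearly interpolated endpoints. TGI denotes the concentration required for complete inhibition of growth.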
# Tests used:
# Experiment in all cases: NCI tumour cell line growth inhibition, 48 h
# [1] = tested on: CAKI-1 renal
# [2] = tested on: HS 578T breast
# [3] = tested on: UO-31 renal
# [4] = tested on: HCT-15 colon
# [5] = tested on: OVCAR-3 ovarian
# [6] = tested on: UACC-62 melanoma
# [7] = tested on: K-562 leukemia
# [8] = tested on: 786-0 renal
# [9] = tested on: T-47D breast
# [10] = tested on: SF-268 CNS
SMILES,TGI [1] [µM],TGI [2] [µM],TGI [3] [µM],TGI [4] [µM],TGI [5] [µM],TGI [6] [µM],TGI [7] [µM],TGI [8] [µM],TGI [9] [µM],TGI [10] [µM]
CC(=O)Nc1ncc(Sc2ccccc2C(=O)O)s1,> 100,> 100,> 100,> 100,> 100,> 100,> 100,> 100,> 100,> 100
Cc1c(-c2cc3n(n2)C(c2cccs2)C(C#N)=C(c2ccccc2)N3)c(=O)n(-c2ccccc2)n1C (configuration not stated),84.2,,> 100,> 100,> 100,> 100,> 100,,,> 100
O=C1OC(c2ccc(O)c(Cl)c2)(c2ccc(O)c(Cl)c2)c2ccc(Br)c3cccc1c23 (tested in a mixture with another compound),29.2,> 53.1,33.4,44,21.8,26.1,46.2,35.8,13.3,31.3
O=C(Oc1ccccc1)c1cc2cc(CCl)ccc2oc1=O,29.8,52.8,68.1,> 100,> 100,27.5,> 100,64.4,38.7,73.9
C=C(C=O)c1c2c(nc3ccccc13)C(=O)c1ccccc1C2=O,0.795,0.961,> 29,1.01,2.35,2.59,> 22.5,> 100,3.29,3.02
O=C1c2cc3ccccc3cc2C2(c3ccc(Cl)cc3)N[C@H]3CCCC[C@@H]3N12 (some centres not stated),70.3,27.9,57.6,> 100,49,35.2,> 100,23.3,52.7,39
CCP(=O)(CC)C(Cl)(Cl)C(O)C(C)(C)C (configuration not stated),> 100,> 100,> 100,> 100,> 100,,> 100,,> 100,
NC1CC(=O)c2csc(Br)c21 (configuration not stated),27.5,46.5,30.7,41.2,30.7,33.2,> 82.4,> 50.7,> 59.3,44.1
C=C1c2c(cc3c(c2O)c(=O)c2ccccc2n3C)OC1(C)C,> 100,,> 100,> 100,> 100,> 100,,,,> 100
COc1ccc(Cc2nc3cc(C(F)(F)F)ccc3n2CCCN(C)C)cc1,56,43.1,1.04,48.8,46.1,32.1,34.4,,32.3,70.9
COc1cc(N=NN(C)C)c(C(C)c2c3cc(OC)c(OC)cc3cc[n+]2C)cc1OC (configuration not stated),> 100,> 100,> 100,> 100,> 100,59.5,> 100,> 100,76.2,> 100
C/C(=N\Nc1ccc([N+](=O)[O-])cc1[N+](=O)[O-])c1ccc2ccccc2n1,> 100,> 100,> 100,> 100,,> 100,> 100,> 100,> 100,> 100
c1ccc(N=C2SC(=NNc3ccccc3)SC2=Nc2ccccc2)cc1,> 100,> 100,> 100,> 100,,> 100,> 100,> 100,> 100,> 100
O=P(O)(O)C(O)/C=C/c1ccccc1 (configuration not stated),> 100,> 100,> 100,> 100,> 100,> 100,> 100,> 100,> 100,> 100
O=P(O)(O)C(CSc1ccccc1)P(=O)(O)O,> 100,,> 100,> 100,> 69.2,> 100,> 100,,,> 100
O=C(O)CSCC(=O)Nc1ccc2cccc3c2c1CC3,> 100,> 100,> 100,> 100,> 100,> 100,> 100,> 100,> 100,> 100
CCCNC(=S)N/N=C/c1cccc(C)n1,,> 100,> 100,> 100,,57,77.5,> 100,> 100,
COc1ccc2c3c1OC1C(=O)C=CC4(O)C(C2)NCC[C@@]314 (some centres not stated),8.49,6.39,8.53,11.3,3.99,12.7,> 80.8,5.02,5.69,7.55
Cc1cccc(Nc2cn(COCc3ccccc3)c(=O)[nH]c2=O)c1,> 100,> 100,> 100,> 100,> 100,> 100,> 100,> 100,,> 100
COc1ccc(/C=C2\CSC/C(=C\c3ccc(OC)c(OC)c3OC)C2=O)c(OC)c1OC,,,> 100,74.1,> 100,30.4,> 100,48.1,> 100,> 100
CC(C)(C)[Si](C)(C)OCCCC#CCO,> 100,,> 100,> 100,,> 100,> 100,,,> 100
CCc1n[nH]c(=O)n1N1C(=O)C2CC=CCC2C1=O (configuration not stated),> 100,> 100,> 100,> 100,> 100,> 100,> 100,> 100,> 100,> 100
NC(=O)CCC(NCc1c2ccccc2[n+]([O-])c2ccccc12)C(=O)O (configuration not stated),> 100,,> 100,> 100,> 100,> 100,> 100,> 100,,> 100
